Data as given in patent US7781451B2, “Thiazolopyridine derivatives, pharmaceut ical conditions containing them and methods of treating glucokinase mediated conditions” (Novartis AG, priority 2004, dated 2010).

Experiments:
recombinant GST-GK = biological target: T1, recombinant GST-GK (Homo sapiens, UniProt P35557); experiment: in vitro assay measuring the activation of recombinant GST-GK; format: biochemical; details: thioNADH-coupled assay read at 405 nm
T1 sequence (P35557 1-465): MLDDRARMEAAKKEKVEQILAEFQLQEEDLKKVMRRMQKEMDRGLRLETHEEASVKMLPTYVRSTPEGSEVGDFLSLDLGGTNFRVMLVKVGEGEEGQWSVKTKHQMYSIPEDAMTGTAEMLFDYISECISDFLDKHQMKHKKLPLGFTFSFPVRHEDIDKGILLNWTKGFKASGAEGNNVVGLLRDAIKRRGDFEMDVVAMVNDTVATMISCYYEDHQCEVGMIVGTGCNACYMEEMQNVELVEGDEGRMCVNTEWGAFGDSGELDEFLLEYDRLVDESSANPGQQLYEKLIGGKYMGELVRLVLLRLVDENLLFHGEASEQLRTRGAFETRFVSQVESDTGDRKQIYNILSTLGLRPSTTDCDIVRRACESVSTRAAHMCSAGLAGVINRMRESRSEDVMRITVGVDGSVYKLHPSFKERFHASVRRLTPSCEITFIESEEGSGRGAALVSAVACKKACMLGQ
From the text: The glucokinase activation in vitro may be determined by measuring the activation of recombinant GST-GK by a compound of the present invention in the absence or the presence of GKRP, a 68,000 Da protein inhibitor of GK. In these assays, formation of glucose-6-phosphate is coupled directly to the formation of thioNADH. GST-GK catalyzes the reaction of glucose and Mg-ATP to produce glucose-6-phosphate and ADP. Glucose-6-phosphate dehydrogenase (G6PDH) reduces thionicotinamide (thioNAD) to thioNADH. The assay measures the formation of […] at 405 nM.
The basic GK assay components are as follows: 25 mM HEPES (pH 7.1), 25 mM KCl, 2.5 mM MgCl2, 1 mM ATP (Sigma A-5394), 1 mM DTT, 1 mM thioNAD (Sigma T-7375), 80 units/mL G6PDH (Sigma G-5885), 10 mM glucose and […] GST-GK (110 nM). For assessing reversal of GK inhibition by GKRP, 20 μM Fructose-1-phosphate ([…]) and 25 μg/mL of recombinant GKRP (370 nM) are added to these assay components. F-1-P at 1 μM is used as a control in the GK/GKRP assay. F-1-P reverses inhibition of GST-GK by GKRP.
The assay is done in standard, 96-well, round-bottom plates and the total assay volume is 25 μL. […] The plates are then delivered via the Zymark XP arm to a Thermomax plate reader and read kinetically over three min at 405 nM at RT. Units are expressed as milli-optical density per minute (mOD/min).

Compound | EC50 (recombinant GST-GK) | melting point
CCOCS(=O)(=O)c1ccc(C(CC2CCCC2)C(=O)Nc2nc3ccc(OC)nc3s2)cc1 (stereo not shown) [Example 1, 3-Cyclopentyl-2-(4-ethoxymethanesulfonyl-phenyl)-N-(5-methoxy-thiazolo[5,4-b]pyridin-2-yl)-propionamide] | ~106 nM | 158 to 160 °C
COc1ccc2nc(NC(=O)C(CC3CCCC3)c3ccc(S(=O)(=O)CC(C)=O)cc3)sc2n1 (stereo not shown) [Example 2, 3-Cyclopentyl-N-(5-methoxy-thiazolo[5,4-b]pyridin-2-yl)-2-[4-(2-oxo-propane-1-sulfonyl)-phenyl]-propionamide] |  | 67 to 71 °C
COc1ccc2nc(NC(=O)C(CC3CCCC3)c3ccc(S(=O)(=O)CCc4ccccc4)cc3)sc2n1 (stereo not shown) [Example 3, 3-Cyclopentyl-N-(5-methoxy-thiazolo[5,4-b]pyridin-2-yl)-2-[4-(2-phenyl-ethanesulfonyl)-phenyl]-propionamide] |  | 169 to 172 °C
